# Data taken from patent US20250099448A1, “HETEROCYCLIC COMPOUNDS” (Hoffmann-La Roche Inc., priority 2022, published 2025).
# Biological target: T1, MAGL protein (Homo sapiens, UniProt Q99685)
# T1 sequence (Q99685 1-303): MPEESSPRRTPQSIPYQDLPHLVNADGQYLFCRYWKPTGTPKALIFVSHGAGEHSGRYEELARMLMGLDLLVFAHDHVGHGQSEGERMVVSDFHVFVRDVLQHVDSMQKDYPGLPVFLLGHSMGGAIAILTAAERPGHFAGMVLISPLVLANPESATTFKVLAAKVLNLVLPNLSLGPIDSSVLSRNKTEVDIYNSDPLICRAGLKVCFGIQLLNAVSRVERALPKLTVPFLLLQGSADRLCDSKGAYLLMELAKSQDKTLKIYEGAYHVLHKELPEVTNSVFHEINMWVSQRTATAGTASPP
# Assay: 2-AG assay: MAGL inhibitory activity by hydrolysis of 2-arachidonoylglycerol to arachidonic acid, followed by mass spectrometry
# Assay type: biochemical
# Conditions: 8 μM 2-arachidonoylglycerol, 15 min preincubation, 30 min reaction at RT, RapidFire MS readout
# Summary of the method: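 MAGL was preincubated 15 min at RT with compound (12.5 to […], 3-fold steps) in 50 mM TRIS, 1 mM EDTA, 0.01% Tween-20, 2.5% DMSO. The reaction ran 30 min at RT with 8 μM 2-AG. Arachidonic acid was quantified by RapidFire SPE-MS/MS against a d8-arachidonic acid internal standard.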
row,SMILES,IC50 [nM]
1,O=C(N1CC2(CC(Oc3ncc(C(F)(F)F)cc3F)C2)C1)N1CC2(CC(c3nc(C4CC4)n[nH]3)C2)C1 [compound 665],0.23
2,O=C(N1CC(c2cnc(N3CC[C@@H](C(F)(F)F)C3)nc2)C1)N1CC2(CC(c3nc(C4CC4)n[nH]3)C2)C1 [compound 666],2.2
3,O=C(N1CC2(CC(c3nc(C4CC4)n[nH]3)C2)C1)N1CC2(CC[C@H](Cc3ccc(S(=O)(=O)C(F)(F)F)cc3)C2)C1 [compound 667],0.09
4,N=S(=O)(c1cccc(CC2CC3(C2)CN(C(=O)N2CC4(CC(c5nc(C6CC(F)(F)C6)n[nH]5)C4)C2)C3)c1)C(F)(F)F (centres unmarked) [compound 668],9.75
5,N#Cc1cc(C(F)(F)F)ncc1C[C@@H]1CCC2(C1)CN(C(=O)N1CC3(CC(c4nnc(C5CC5)[nH]4)C3)C1)C2 [compound 669],0.65
6,CS(=O)(=O)c1cc(CC2CC3(C2)CN(C(=O)N2CC4(CC(c5nc(C6(O)CC6)n[nH]5)C4)C2)C3)cc(C(F)(F)F)c1 [compound 670],1
7,O=C(N1CC2(CC(Cn3cc(C(F)(F)F)cn3)C2)C1)N1CC2(CC(c3nc(C4(O)CC4)n[nH]3)C2)C1 [compound 671],5.55
8,O=C(N1CC2(CC(c3nc(C4CC4)n[nH]3)C2)C1)N1CC2(CN(Cc3cc(C(F)(F)F)no3)C2)C1 [compound 672],8.31
9,O=C(N1CC2(CC(Cn3ccc(C(F)(F)F)n3)C2)C1)N1CC2(CC(c3nc(C4(O)CC4)n[nH]3)C2)C1 [compound 673],2
10,O=C(N1CC(C23CC(c4ccc(F)cc4)(C2)C3)C1)N1CC2(CC(c3nc(C4(O)CC4)n[nH]3)C2)C1 [compound 674],8.08
11,O=C(N1CC2(CC(c3nc(C4CC4)n[nH]3)C2)C1)N1CC2(CN(Cc3cc(C(F)(F)F)sn3)C2)C1 [compound 675],8.76
12,O=C(N1CC2(CC(Cc3ncc(Cl)cc3F)C2)C1)N1CC2(CC(c3nc(C4(O)CC4)n[nH]3)C2)C1 [compound 676],2.94
13,N#Cc1ccc(CC2CC3(C2)CN(C(=O)N2CC4(CC(c5nc(C6CC(F)(F)C6)n[nH]5)C4)C2)C3)cc1C(F)(F)F [compound 677],13
14,O=C(N1CC2(CC(c3nnc(C4CC4)[nH]3)C2)C1)N1CC2(C1)CN(c1ncc(C(F)(F)F)cc1F)C2 [compound 678],33.9
15,O=C(N1CC2(CC(Cc3cc(C(F)(F)F)nn3CC(F)(F)F)C2)C1)N1CC2(CC(c3nc(C4CC4)n[nH]3)C2)C1 [compound 679],0.15
16,CP(C)(=O)c1cc(F)cc(CC2CC3(C2)CN(C(=O)N2CC4(CC(c5nc(C6CC6)n[nH]5)C4)C2)C3)c1 [compound 680],1.71
17,Cn1nc(CN2CC3(C2)CN(C(=O)N2CC4(CC(c5nc(C6CC6)n[nH]5)C4)C2)C3)cc1C(F)(F)F [compound 681],7.41
18,O=C(N1CC2(CC(c3nnc(C4CC4)[nH]3)C2)C1)N1CC2(C1)CN(c1ccc(C(F)(F)F)cn1)C2 [compound 682],38.4
19,O=C(N1CC2(CC(Cc3nc(C(F)(F)F)no3)C2)C1)N1CC2(CC(c3nc(C4CC4)n[nH]3)C2)C1 [compound 683],0.21

row,SMILES,IC50 [nM]
1,O=C(N1CC2(CC(Cc3ccc4[nH]ncc4n3)C2)C1)N1CC2(CC(c3nc(C4CC4)n[nH]3)C2)C1 [compound 684],4.33
2,CS(=O)(=O)c1cc(F)ccc1C12CC(C3CN(C(=O)N4CC5(CC(c6nc(C7CC7)n[nH]6)C5)C4)C3)(C1)C2 [compound 685],0.96
3,Cc1onc(C2CC2)c1CN1CC2(C1)CN(C(=O)N1CC3(CC(c4nc(C5CC5)n[nH]4)C3)C1)C2 [compound 686],14.2
4,N=S(=O)(c1ccc(CC2CC3(C2)CN(C(=O)N2CC4(CC(c5nc(C6CC(F)(F)C6)n[nH]5)C4)C2)C3)cc1)C(F)(F)F (centres unmarked) [compound 687],54.1
5,Cn1ncc(CN2CC3(C2)CN(C(=O)N2CC4(CC(c5nc(C6CC6)n[nH]5)C4)C2)C3)c1C(F)(F)F [compound 688],8.96
6,O=C(N1CC2(CC(Cn3cc(CC(F)(F)F)cn3)C2)C1)N1CC2(CC(c3nc(C4CC4)n[nH]3)C2)C1 [compound 690],0.61
7,Cn1ncc(C(F)(F)F)c1CC1CC2(C1)CN(C(=O)N1CC3(CC(c4nc(C5CC5)n[nH]4)C3)C1)C2 [compound 691],0.16
8,O=C(N1CC2(CC(Cc3ccc4[nH]ncc4n3)C2)C1)N1CC2(CC(c3nc(C4(O)CC4)n[nH]3)C2)C1 [compound 692],20.1
9,O=C(N1CC2(CC(c3nc(C4CC4)n[nH]3)C2)C1)N1CC2(CN(Cc3nc(C(F)(F)F)co3)C2)C1 [compound 693],24.5
10,O=C(N1CC2(CC(c3nnc(C4CC4)[nH]3)C2)C1)N1CC2(C1)CN(c1ncc(C(F)(F)F)cn1)C2 [compound 694],236
11,O=C(N1CC2(CC(c3nc(C4CC4)n[nH]3)C2)C1)N1CC2(CN(Cc3nc(CC(F)(F)F)no3)C2)C1 [compound 695],43.8
12,N=S(=O)(c1ccc(C2CN(C(=O)N3CC4(CC(c5nc(C6(O)CC6)n[nH]5)C4)C3)C2)cc1)C(F)(F)F (centres unmarked) [compound 697],2.65
13,O=C(N1CC2(CC(c3nc(C4CC4)n[nH]3)C2)C1)N1CC2(CN(Cc3nccn3CC(F)(F)F)C2)C1 [compound 698],55.9
14,O=C(N1CC(C23CC(Nc4cnc(C(F)(F)F)cn4)(C2)C3)C1)N1CC2(CC(c3nc(C4CC4)n[nH]3)C2)C1 [compound 699],0.34
15,O=C(N1CC2(CC(c3nc(C4CC4)n[nH]3)C2)C1)N1CC2(CN(Cc3sncc3C(F)(F)F)C2)C1 [compound 700],2.56
16,O=C(N1CC2(CC(c3nc(C4CC4)n[nH]3)C2)C1)N1CC2(CN(Cc3ncoc3C(F)(F)F)C2)C1 [compound 701],64.4
17,O=C(N1CC(C23CC(c4cc(C5CC5)n[nH]4)(C2)C3)C1)N1CC2(CC(c3nc(C4CC(F)(F)C4)n[nH]3)C2)C1 [compound 702],255
18,O=C(N1CC2(CC(c3nc(C4CC4)n[nH]3)C2)C1)N1CC2(CCN(Cc3ccc(S(=O)(=O)C(F)(F)F)cc3)C2)C1 [compound 703],2.63

# Next, values leading:
row,IC50 [nM],SMILES
1,0.3,O=C(N1CC2(CC(Cc3nc(C(F)(F)F)cs3)C2)C1)N1CC2(CC(c3nc(C4CC4)n[nH]3)C2)C1 [compound 704]
2,0.57,COc1cc(F)cc(C23CC(C4CN(C(=O)N5CC6(CC(c7nc(C8CC8)n[nH]7)C6)C5)C4)(C2)C3)c1 [compound 705]
3,280,O=C(N1CCC(C23CC(c4nnc(C5(C(F)(F)F)CC5)o4)(C2)C3)CC1)N1CC2(CC(c3nc(C4(O)CC4)n[nH]3)C2)C1 [compound 706]
4,2.44,O=C(N1CC(C23CC(Oc4cnc(C(F)(F)F)cn4)(C2)C3)C1)N1CC2(CC(c3nc(C4CC4)n[nH]3)C2)C1 [compound 707]
5,2.63,O=C(N1CC(c2cnc(N3CC[C@H](C(F)(F)F)C3)nc2)C1)N1CC2(CC(c3nc(C4CC4)n[nH]3)C2)C1 [compound 708]
6,24.3,O=C(N1CC2(CC(c3nc(C4CC4)n[nH]3)C2)C1)N1CC2(CN(Cc3nccn3C(F)(F)F)C2)C1 [compound 709]
7,2.61,O=C(N1CC2(CC(Cc3ccc(OC(F)(F)F)nc3)C2)C1)N1CC2(CC(c3nc(C4(O)CC4)n[nH]3)C2)C1 [compound 710]
8,0.2,O=C(N1CC2(CC(Cn3cc(C4(C(F)(F)F)CC4)cn3)C2)C1)N1CC2(CC(c3nc(C4CC4)n[nH]3)C2)C1 [compound 711]
9,497,Cc1cc(C)n(C23CC(C4CN(C(=O)N5CC6(CC(c7nc(C8(O)CC8)n[nH]7)C6)C5)C4)(C2)C3)n1 [compound 712]
10,3.42,O=C(N1CC2(CC(c3nc(C4CC4)n[nH]3)C2)C1)N1CC2(CN(Cc3cc(C(F)(F)F)ns3)C2)C1 [compound 713]
11,30,O=C(N1CC2(CC(c3nc(C4(O)CC4)n[nH]3)C2)C1)N1CC2(CCN(Cc3ccc(S(=O)(=O)C(F)(F)F)cc3)C2)C1 [compound 714]
12,0.45,N=S(=O)(c1ccc(CC2CC3(C2)CN(C(=O)N2CC4(CC(c5nc(C6(O)CC6)n[nH]5)C4)C2)C3)c(F)c1)C(F)(F)F (centres unmarked) [compound 715]
13,29.2,O=C(N1CC2(CC(Cn3nccc3C(F)(F)F)C2)C1)N1CC2(CC(c3nc(C4COC4)n[nH]3)C2)C1 [compound 716]
14,83.8,O=C(N1CC2(CC(c3nc(C4CC4)n[nH]3)C2)C1)N1CC2(CN(Cc3ccnn3CC(F)(F)F)C2)C1 [compound 717]
15,550,O=C(N1CC2(CC(c3nc(C4CC4)n[nH]3)C2)C1)N1CC2(CN(Cc3ccc[nH]c3=O)C2)C1 [compound 718]
16,68.9,N#Cc1cnn(CC2CC3(C2)CN(C(=O)N2CC4(CC(c5nc(C6(O)CC6)n[nH]5)C4)C2)C3)c1 [compound 719]
17,544,O=C(N1CC2(CC(Cc3ccc(OC(F)(F)F)cn3)C2)C1)N1CC2(CC(c3ncn[nH]3)C2)C1 [compound 721]
18,57.1,O=C(N1CC(C23CC(S(=O)(=O)c4ccc(C(F)(F)F)cc4)(C2)C3)C1)N1CC2(CC(c3nc(C4CC4)n[nH]3)C2)C1 [compound 722]
19,1.37,O=C(N1CC2(CCC(S(=O)(=O)c3ccc(C(F)(F)F)cc3)CC2)C1)N1CC2(CC(c3nc(C4CC4)n[nH]3)C2)C1 [compound 723]
20,3.8,O=C(N1CC2(CC(Cn3cc(OC(F)F)ccc3=O)C2)C1)N1CC2(CC(c3nc(C4CC4)n[nH]3)C2)C1 [compound 724]
21,46.6,Cc1cc(C)n(C23CC(C4CN(C(=O)N5CC6(CC(c7nc(C8CC8)n[nH]7)C6)C5)C4)(C2)C3)n1 [compound 725]
22,0.1,O=C(N1CC2(CC(c3nc(C4(O)CC4)n[nH]3)C2)C1)N1CC2(CC[C@@H](Cc3cccc(S(=O)(=O)C(F)(F)F)c3)C2)C1 [compound 726]
